{"source": "patent US10682388B2", "about": "“Targeting of PELP1 in cancer therapy” (THE BOARD OF REGENTS OF THE UNIVERSITY OF TEXAS SYSTEM, priority 2014, dated 2020)", "key": {"[1]": {"tested_on": "ERE-luciferase in ZRPELP1 cells", "assay": "ERE-luciferase reporter gene assay in PELP1 overexpressing cells", "assay_type": "cell-based, Human", "settings": "peptide 24 hours, estradiol 12 hours, compared to control TAT, FIGS. 4B, 10", "procedure": "(§1) FIGS. 4A-E. (FIG. 4A) ZR75vec, ZR75PELP1, MCF7vec and MCF7PELP1 cells were treated in triplicate with TAT, PIP1 or PIP1 deletions (Del1, Del2, Del3) at 10 uM every 3 days and proliferation was measured by MTT assay on day 7. (FIG. 4B) ZRPELP1 cells were transfected with ERE-luciferase and treated with TAT, PIP1, or PIP2 for 24 hours and with estradiol for 12 hours. Relative luciferase activity was measured in triplicate. (FIG. 4C) ZR75 cells were grown in 5% DCC media for 72 hours, treated with TAT or PIP1 every 3 days, and treated with estradiol 10^−7 M for 12 hours. Proliferation was measured in triplicate on day 7 by MTT assay at 595 nm. (FIG. 4D) MCF7-Letrozole resistant cells were grown in 5% DCC media for 72 hours, treated with TAT, PIP1 or PIP2 every 3 days, and letrozole or estradiol 10^−7 M for 12 hours. Proliferation was measured in triplicate on day 7 by MTT assay at 595 nm. (FIG. 4E) MCF7-Tamoxiefn resistant cells were grown in 5% DCC media for 72 hours, treated with TAT, PIP1 or PIP2 every 3 days, and tamoxifen or estradiol 10^−7 M for 12 hours. Proliferation was measured in triplicate on day 7 by MTT assay at 595 nm.\nFIG. 10. ERE-luciferase assay. […]\nModel cells were seeded in 6-well plates. […] Luciferase activity was measured by using the luciferase assay system (Promega, Madison, Wis.)."}, "[2]": {"tested_on": "ZR75, ZR75PELP1, MCF7 and MCF7PELP1 cells", "assay": "MTT proliferation assay, breast cancer cells with and without PELP1 overexpression", "assay_type": "cell-based, Human", "settings": "10 μM every 3 days, day 7, FIG. 4A", "procedure": "as §1, with “(FIG. 4E) MCF7-Tamoxiefn resistant cells were grown in 5% DCC media for 72 hours, treated with TAT, PIP1 or PIP2 every 3 days, and tamoxifen or estradiol 10^−7 M for 12 hours.” left out\nCell proliferation rates were measured by using MTT Cell Viability Assay in 96-well plates. […] After an overnight incubation, cells were treated with varying concentrations of the peptides for 3-7 days and growth inhibition was determined by using traditional MTT assay (Sigma) following manufacturer's instructions."}, "[3]": {"tested_on": "ZR75 cells", "assay": "TUNEL assay", "assay_type": "cell-based, Human", "settings": "10 μM, 24 hours, FIG. 5D", "procedure": "FIGS. 5A-D. (FIG. 5A) ZR75vec, ZR75PELP1, MCF7vec and MCF7PELP1 cells were plated in the top of a Boyden chamber transwell, treated with TAT, PIP1 or PIP2 (10 μM) and absorbance was measured at 12 hours in triplicate. (FIG. 5B) MCF7vec, MCFP7ELP1, ZR75vec and ZR75PELP1 cells were treated in triplicate with TAT, PIP1 or PIP2 (10 μM) every 3 days, fixed with methanol on day 10 and stained with crystal violet. Average colonies per well are shown. (FIG. 5C) ZR75vec and ZR75PELP1 cells were plated in triplicate in agar with 8% RPMI with TAT, PIP1 or PIP2 (10 μM). Colonies were counted on day 14, representative images are shown on right. (FIG. 5D) ZR75 cells were plated on coverslips in triplicate and treated with TAT or PIP1 (10 μM) for 24 hours. Cells were fixed with paraformaldehyde and labeled with TUNEL and DAPI, representative images are shown on right.\nZR75 and ZR75PELP1 cells were plated on coverslips in 8% RPMI and treated with peptide for 24 hours. Cells were labeled with in situ Cell Death Detection Kit (Roche) according to manufacturer's protocol, imaged by fluorescent microscopy and quantified."}, "[4]": {"tested_on": "MCF7PELP1 Cd44high/CD22low cells", "assay": "Mammosphere formation and self-renewal assay on FACS-sorted cells", "assay_type": "cell-based, Human", "description": "FIGS. 6A-C. (FIG. 6A) ZR75, ZR75PELP1 and ZR75PELP1KD cells were FACS sorted for CD44-APC and CD24-PE, and quantification of percentage of CD44high/CD24low cells is shown. (FIG. 6B) MCF7PELP1 cells were FACS sorted for CD44high/CD24low cells and plated in triplicate in serum free mammosphere media with TAT or PIP1 in various concentrations. Mammospheres were counted and imaged on day 7. Representative images are shown on right. (FIG. 6C) Mammospheres from previous assay (C) were dissociated and replated in serum free mammosphere media. Mammospheres were counted and imaged on day 7. Representative images are shown on right. ZR75PELP1 and MCF7PELP1 cells were FACS sorted for CD44-APC^high (Milteny Biotec) and CD24-PE^low (Milteny Biotec) cell surface markers. A single cell suspension of model cells ZR75-PELP1 were seeded in mammosphere media in a low adherent 96-well plate with TAT or PIP (10, 20 or 50 μM). Media containing peptide was added on day 4 and mammospheres were counted and imaged on day 8 (Shaw et al., 2012)."}, "[5]": {"tested_on": "BG1 cells", "assay": "Ovarian cancer cell proliferation", "assay_type": "cell-based", "settings": "BG1, FIG. 14", "procedure": "FIG. 14. […] Cell proliferation rates were measured by using MTT Cell Viability Assay in 96-well plates. Model cells were seeded in 96-well plates (1×10^3 cells/well) in DMEM or RPMI medium containing 10% serum. After an overnight incubation, cells were treated with varying concentrations of the peptides for 3-7 days and growth inhibition was determined by using traditional MTT assay (Sigma) following manufacturer's instructions."}, "[6]": {"tested_on": "T98G, LN229 and U251 glioma cells and patient-derived primary GBM cells", "assay": "MTT proliferation assay, glioma cell lines and primary GBM cells", "assay_type": "cell-based", "settings": "FIGS. 15A-D", "procedure": "FIGS. 15A-D. PIPs inhibit proliferation of glioma cells. (FIGS. 15A-B) T98G, LN229 and U251 glioma cells were treated with vehicle or varying concentration of PIP1 or PIP3, and proliferation was measured by using the MTT assay. (FIGS. 15C-D) Patient-derived primary GBM cells were treated with PIP1 or PIP3 and proliferation was measured using the MTT assay. Cell proliferation rates were measured by using MTT Cell Viability Assay in 96-well plates. Model cells were seeded in 96-well plates (1×10^3 cells/well) in DMEM or RPMI medium containing 10% serum. After an overnight incubation, cells were treated with varying concentrations of the peptides for 3-7 days and growth inhibition was determined by using traditional MTT assay (Sigma) following manufacturer's instructions."}}, "note": "“Also recorded” adds a separate entry of the source.", "data": [{"sequence": "GRKKRRQRRRGGMVEFRWSCPGRRKAKA [PIP1]", "values": [{"measurement": "ERE activation (ERE-luciferase)", "setting": "[1]", "value": "significantly decreased ERE activation"}, {"measurement": "proliferation by MTT assay", "setting": "[2]", "value": "significant decrease"}, {"measurement": "apoptosis by TUNEL assay", "setting": "[3]", "value": "induces apoptosis"}, {"measurement": "number of mammospheres", "setting": "[4]; 10, 20 and 50 μM, FIG. 6B", "value": "significant decrease in the number of mammospheres"}, {"measurement": "size of the mammospheres", "setting": "[4]; 10, 20 and 50 μM, FIG. 6B", "value": "substantially decreased"}, {"measurement": "self-renewal capacity of replated mammospheres", "setting": "[4]; dissociated and replated, FIG. 6C", "value": "decreased self-renewal capacity; also recorded: inhibits the self-renewal of the cancer stem cells"}, {"measurement": "proliferation of ovarian cancer cells", "setting": "[5]", "value": "dose-dependent decrease in the proliferation; also recorded: inhibits proliferation of ovarian cancer cells"}, {"measurement": "concentration of potent activity on glioma proliferation", "setting": "[6]", "value": 50, "unit": "µM"}, {"measurement": "proliferation of glioma cell lines and primary GBM cells", "setting": "[6]; varying concentration", "value": "significantly reduced their proliferation in a dose-dependent manner"}]}]}
